Consider 19 compounds from patent publication US5182279A, “Benzothienopyrazinedione compounds and their preparation and use” (Novo Nordisk A/S, priority 1990, dated 1993).

Each structure is given as a SMILES string. pIC50, pKi: −log10 of the molar value.

One may read the pIC50 as the IC50 on a negative log10 scale, so that one unit is a factor of ten. Read a low pIC50 as a high IC50. Broadly, the pKi is −log10 of the Ki, conventionally taken in molar units.

Test [1] has as its system glycine site coupled to the NMDA ionophor complex. Conditions: literature, in words; cited from earlier work.
For test [2], the target named is T1, glycine site of the NMDA receptor complex (Rattus norvegicus, UniProt P35439).
T1 construct: thawed rat cerebral cortical membrane homogenate; from tissue; host or cells: rat cerebral cortical membrane homogenate
The experiment in a line: [3H]-glycine binding (Test 1). The note with it: displacement of 50% of specific [3H]-glycine binding; rat cerebral cortical membrane homogenate, pH 7.1, 0° C., 10 min. As to the method:
The glycine site binding activity of these compounds of the present invention can be illustrated by determining their capability for displacing radioactively labelled glycine from the glycine site.
The displacement activity of the compounds may be shown by determining the IC50 value which represents the concentration (μM) which causes a displacement of 50% of the specific binding of [^3 H]-glycine.
^3 H]-glycine binding (Test 1)
1 ml of thawed rat cerebral cortical membrane homogenate in HEPES-Tris (5 mM) and MgCl2 (1 mM) pH 7.1 were incubated at 0° C. for 10 min. with […] and the test compound and buffer. Non-specific binding was determined by incubating with D-serine (1 mM final concentration). The binding reaction was terminated by centrifugation at 15,000 ×g at 4° C. followed by washing of the pellet with three times 3 ml of ice-cold buffer. Bound radioactivity was measured by scintillation counting. IC50 was determined by Hill analysis of at least four concentrations of test compound.

In test [3] the target is T1, glycine site of the NMDA receptor complex. Description: Antagonism of glycine enhanced [3H]-MK-801 binding (Test 2). The note with it: dissociation constant of receptor-antagonist complex, Schild analysis; rat cerebral membrane homogenate, pH 7.40, 23° C., 60 min, 1 nM [3H]-MK-801, 300 nM glutamate. The method, then:
The glycine antagonism is measured by determining the Ki value which represents the dissociation constant (μM) of the receptor-antagonist complex.
Antagonism enhanced [^3 H]-MK-801 binding (Test 2)
1 ml of thawed and extensively washed rat cerebral membrane homogenate in HEPES-NaOH (20 mM) pH 7.40 were incubated at 23° C. for 60 min. with 25μl[^3 H]-MK-801 (1 nM final concentration), 25 μl glutamate (300 nM final concentration), test compound in concentrations corresponding to 0, 0.5, 2 and 5 times the IC50 value from the [^3 H]-glycine binding assay (test 1) for each concentration of glycine (10; 100; 1,000; 10,000 and 100,000 nM final concentration). The binding reaction was terminated by adding 5 ml of ice- cold buffer followed by rapid filtration through Whatman GF/C glass fiber filters and 5 ml wash with ice-cold buffer. Bound radioactivity was measured by scintillation counting. Ki values were determined by Schild analysis of the data using
log(dosis ration-1)=log[Inhibitor]-log(Ki)

Test [4] concerns NMDA stimulated [3H]-GABA release from cultured mouse cerebral cortex interneurons. The experiment in a line: Inhibition of NMDA stimulated [3H]-GABA release from cultured mouse cerebral cortex interneurons (Test 3). The class given is cell-based. The note with it: inhibits 50% of NMDA induced [3H]-GABA release, 3 μg/ml NMDA, 37° C. From the text:
The NMDA antagonistic properties of the compounds is illustrated by determining their capability to antagonize NMDA stimulated [^3 H]-GABA release from cultured mouse cortex neurons. The NMDA antagonistic activity of the compounds may be shown by determining the IC50 value, which represents the concentration (μM) which inhibits 50% of NMDA induced [^3H]-GABA release.
Inhibition of NMDA stimulated [^3 H]-GABA release from cultured mouse cerebral cortex interneurons (Test 3)
Release experiments are performed using the model described by Drejer et al. (Life Sci. 38, 2077 (1986)). To cerebral cortex interneurons cultured in petri dishes (30 mm) are added 100 μg/ml 3-vinyl-GABA one hour before the experiment in order to inhibit degradation of GABA in the neurons. 30 min. before the experiment 5 μCi [^3 H]-GABA added to each culture and after this preloading period the cells are washed twice with HEPES buffered saline (HBS) containing 10 mM HEPES, 135 mM NaCl, 5 mM KCl, 0.6 mM MgSO4, 1.0 mM CaCl2 and 6 mM D-glucose; pH 7 and placed in a superfusion system. This system consists of a peristaltic pump continuously delivering thermostated 37° C. superfusion medium from a reservoir to the top of a slightly tilted petri dish. The cell monolayer at the bottom of the dish is covered with a piece of nylon mesh to facilitate dispersion of medium over the cell layer. The medium is continuously collected from the lower part of the dish and delivered to a fraction collector. Initially, the cells are superfused with HBS for 15 min. (flow rate 2 ml/min.). Then cells are stimulated for 30 sec. every 4 min. by changing the superfusion medium from HBS to a corresponding medium containing NMDA and antagonist according to the following scheme:
Stimulation no. 1: 3 μg/ml NMDA
Stimulation no. 2: 3 μg/ml NMDA +0.3 μg/ml antagonist
Stimulation no. 3: 3 μg/ml NMDA +3.0 μg/ml antagonist
The release of [^3 H]-GABA in the presence of NMDA is corrected for the mean basal release before and after stimulation. The stimulated release in the presence of antagonist is expressed relative to the stimulated release by NMDA alone and the IC50 value is calculated.

`N#Cc1cc2[nH]c(=O)c(=O)[nH]c2cc1[N+](=O)[O-]` [CNQX, 6-cyano-7-nitroquinoxaline 2,3-dione]: the “activity at the glycine site” value in test [1] is listed as “weak antagonists”. Regarding `C[C@@H](N)C(=O)O` [D-alanine], the “activity at the glycine site” value in test [1] was “strong agonist activity”. On to `N[C@@H]1CONC1=O` [D-cycloserine], for which, in test [1], the “activity at the glycine site” value is “partial agonists”. With `N[C@H](CO)C(=O)O` [D-serine], in test [1], the “activity at the glycine site” value is “strong agonist activity”. As to `O=c1[nH]c2sc3ccc(F)cc3c2[nH]c1=O` [Example 1, 8-Fluoro[1]benzothieno[2,3-b]pyrazine-2,3(1H,4H)-dione], the pIC50 in test [2] was 7.28; in test [4], 7.41. Further, the pKi in test [3] is 8.10. The matching figures for `O=c1[nH]c2sc3ccc(Cl)cc3c2[nH]c1=O` [Example 2, 8-Chloro[1] benzothieno[2,3-b]pyrazine-2,3(1H,4H)-dione]: 7.25, 7.96 and 7.40. The matching figures for `O=c1[nH]c2sc3ccccc3c2[nH]c1=O` [Example 3, [1]Benzothieno[2,3-b]pyrazine-2,3(1H,4H)-dione]: 6.55, 7.07 and 6.68. The compound `O=c1[nH]c2sc3ccc(Br)cc3c2[nH]c1=O` [Example 4, 8-Bromo[1]benzothieno[2,3-b]pyrazine-2,3(lH,4H)-dione] gave a negative-log IC50 (pIC50) in test [2] of 7.16. The pKi in test [3] is 7.74. `O=c1[nH]c2sc3cc(Cl)ccc3c2[nH]c1=O` [Example 5, 7-Chloro[1]benzothieno[2,3-b]pyrazine-2,3(1H,4H)-dione] had a pIC50 in test [2] of 5.22. Consider `O=c1[nH]c2sc3c(Cl)cc(Cl)cc3c2[nH]c1=O` [Example 7, 6,8-Dichloro[1]benzothieno[2,3-b]pyrazine-2,3(1H,4H)dione], for which the figures for the negative logarithm of the IC50 (pIC50) in test [2] and in test [4] were 6.51 and 7.17, respectively. `O=C(O)c1cc(O)c2ccc(Cl)cc2n1` [Example 7-Cl-Kyn, 7-chlorokynurenic acid, reference compound]: the pIC50 is 5.85 in test [2] and 5.89 in test [4]. For the same compound, the “activity at the glycine site” value in test [1] was “quite strong antagonists”. Also, in test [3], the pKi is 6.15.

With `O=c1[nH]c2sc3ccc(I)cc3c2[nH]c1=O` [Example 8, 8-Iodo[1]benzothieno[2,3-b]pyrazine-2,3(1H,4H)-dione], the results for the negative-log IC50 (pIC50) in test [2] and in test [4] were 6.00 and 6.95, respectively. In the case of `O=c1[nH]c2sc3ccc(C(F)(F)F)cc3c2[nH]c1=O` [Example 9, 8-Trifluoromethyl[1]benzothieno[2,3-b]pyrazine-2,3-(1H, 4H)-dione], the pIC50 in test [2] is 5.15. Still for that read-out and setting: next, `COc1cccc2c1sc1[nH]c(=O)c(=O)[nH]c12` [Example 10, 6-Methoxy[1]benzothieno[2,3-b]pyrazine-2,3(lH,4H)-dione]: 4.97; `COc1ccc2c(c1)sc1[nH]c(=O)c(=O)[nH]c12` [Example 11, 7-Methoxy[1]benzothieno[2,3-b]pyrazine-2,3(lH,4H)-dione]: 4.82.

Take `O=c1[nH]c2sc3c(Cl)cccc3c2[nH]c1=O` [Example 12, 6-Chloro[1]benzothieno[2,3-b]pyrazine-2,3(lH,4H)-dione]: the negative logarithm of the IC50 (pIC50) in test [2] was 6.74. Further, the pKi in test [3] is 7.39.

`O=c1[nH]c2sc3c(F)cccc3c2[nH]c1=O` [Example 13, 6-Fluoro[1]benzothieno[2,3-b]pyrazine-2,3(lH,4H)-dione] showed a pIC50 in test [2] of 6.58. Still for that read-out and setting: to `O=c1[nH]c2sc3cc(Br)c(F)cc3c2[nH]c1=O` [Example 14, 7-Bromo-8-fluoro[1]benzothieno[2,3-b]pyrazine-2,3-(1H,4H)-dione] belongs 6.27. With `NC1CCN(O)C1=O` (centres unmarked) [HA-966, 3-amino-1-hydroxy-2-pyrrolidone, reference compound], the pIC50 in test [2] is 4.89; in test [4] it was 4.60. Besides, the “activity at the glycine site” value in test [1] is “weak antagonists”. The pKi in test [3] was 4.80.
